In US10457709B2, “Antimicrobial peptides, their variants and uses” (priority 2015, dated 2019):
Square brackets hold non-standard residues; d marks the D form. Ends that are not written are not given here. Peptide text beside a SMILES is read from it.

Assays:
[1] = tested on: Pseudomonas aeruginosa (ATCC 27853); test: microbe, parasite or virus in culture; format: cell-based; conditions: ATCC 27853
Experimental: (§1) Minimum inhibition concentrations (MICs) were determined against Escherichia coli (ATCC 25922), Staphylococcus aureus (ATCC 25923), Klebsiella pneumoniae (ATCC 10031) and Pseudomonas aeruginosa (ATCC 27853). Also clinical strains of E. coli, K. pneumoniae, E. cloacae, P. aeruginosa, Serratia marcescens, Proteus mirabilis, S. pneumoniae, Acinetobacter baumannii, A. johnsonii and S. aureus were used for MICs assays. Additionally, clinical strains of yeast including Candida albicans, C. glabrata, C. parapsilosis and C. quillermondiae were used. The susceptibility of these microorganisms to Chain peptides were determined using micro broth dilution assay. Colonies of the respective microorganism from Muller Hinton (MH) agar plates incubated overnight were suspended in MH broth media and final concentration of microorganism was adjusted to 5.0×10^5 cfu/ml. An aliquot of 10 μl of each Chain peptide, or gentamicin, tetracycline as reference antibiotics were added in differing concentrations along with 90 μl of bacterial suspension to 96 well polypropylene plates and incubated at 37° C. for 20 to 24 hours. Concentrations of Chain peptides and reference antibiotics ranged from 0.125 to 128 μg/ml and the MICs were recorded as the lowest concentration with no visual growth of bacteria. Similarly, antifungal MICs were tested in Potato dextrose broth.

[2] = tested on: Staphylococcus aureus (ATCC 25923); test: microbe, parasite or virus in culture; format: cell-based; conditions: ATCC 25923
Experimental: as §1

[3] = tested on: Klebsiella pneumoniae (ATCC 10031); test: microbe, parasite or virus in culture; format: cell-based; conditions: ATCC 10031
Experimental: as §1

[4] = tested on: Escherichia coli (ATCC 25922); test: microbe, parasite or virus in culture; format: cell-based; conditions: ATCC 25922
Experimental: as §1

[5] = pH 4 to 9; radial diffusion assay
Experimental: FIG. 9a. pH stability of chain peptides 104 and 105 was determined by radial diffusion assay (RDA). Different pH ranging from 4-9 was used to check the zone of inhibition.
FIG. 9b. pH stability of chain peptides 201 and 204 was determined by radial diffusion assay (RDA). Different pH ranging from 4-9 was used to check the zone of inhibition.
FIG. 9c. pH stability of chain peptides 306 and 308 was determined by radial diffusion assay (RDA). Different pH ranging from 4-9 was used to check the zone of inhibition.
(§2) Thermal stability was evaluated by diluting peptides to the concentration of 2 mg/ml in PBS buffer (pH 7.4) and incubating at different temperatures, such as +4° C., 25° C. (RT), 37° C. and 45° C., peptides stored at −20° C. were used as control. After each time interval, 100 μl (2 mg/ml) of peptides were taken and stored at −20° C. for radial diffusion assay to determine the antibacterial activity (FIG. 8). Peptides were also tested by diluting them at different pH values starting from pH 4 to 9. The effect of NaCl on the antimicrobial activity was tested by adding different concentrations (50, 100 and 200 mM) of NaCl to MH medium and the minimum inhibitory concentrations were tested against 4 ATCC bacterial strains.

[6] = up to 45° C. for over 14 days; radial diffusion assay
Experimental: FIG. 8a. […] Antibacterial activity was tested by aliquoting 20 μg of peptides incubated at different temperature and activity was measured by zone of inhibition. Peptides at −20° C. served as control.
(§3) FIG. 8b. Thermostability of the chain peptides 201 (A-D) and 204 (E-H) tested at various temperatures over a period of 14 days by radial diffusion assay. Antibacterial activity was tested by aliquoting 20 μg of peptides incubated at different temperature and activity was measured by zone of inhibition. Peptides at −20° C. served as control.
as §3, with “8c.” for “8b.”, “306” for “201”, “308” for “204”
as §2

human erythrocytes = format: cell-based
Experimental: In hemolysis assays, the ability of peptides at 128 μg/ml concentration to lyse human erythrocytes to release hemoglobin was measured. The peptides described here preferably have low hemolytic activity (0.2 to 3.8% hemolysis) in mammal body. […] These peptides are useful as antimicrobial drugs as they show little or no side effects at concentrations needed to kill bacteria.
Minimum inhibition concentrations (MICs) were tested by microbroth dilution method and Chain 104, 105 and 109 inhibited the growth of Escherichia coli (ATCC 25922), Staphylococcus aureus (ATCC 25923), Klebsiella pneumoniae (ATCC 10031) and Pseudomonas aeruginosa (ATCC 27853) between 1-8 μg/ml respectively (Tables 3a, 3b and 3c). The membranolytic activities of the peptides were tested by measuring the release of hemoglobin from erythrocytes of fresh blood donated by voluntiers. Hemoglobin levels were determined spectrometrically by taking OD at 540 nm by following the protocol of Schmidtchen et al., 2011.

S. aureus COL (MRSA) = format: cell-based, Staphylococcus aureus
Experimental: as §1
(§4) Peptides Chain 104, Chain 105, Chain 201, Chain 308, Chain 310 were tested against antibiotic-sensitive strains of S. aureus RN4220 and methicillin resistant strains of S. aureus COL (MRSA). Chain peptides comprising of either L- or D-form amino acids were tested against these bacteria, and the D-form peptides were found have better activity compared to L-form (Table 6). Synergistic activity of chain peptides along with Ertapenem (4 μg/ml) was tested to know whether it will influence the activity against MRSA strains. […] Chain 310 has the best antibacterial activity against the MRSA strains with a MIC of 0.06 & 0.03 μg/ml along with Ertapenem (4 μg/ml) for both forms of L and D-peptides (Table 6).

S. aureus RN4220 = format: cell-based, Staphylococcus aureus; conditions: antibiotic sensitive strain S. aureus RN4220
Experimental: as §1, §4

[7] = tested on: MRSA strains (S. aureus COL); test: MIC, synergistic activity with Ertapenem (4 μg/ml); format: cell-based, Staphylococcus aureus; conditions: S. aureus COL, synergistic activity with 4 μg/ml Ertapenem
Experimental: as §1, §4

Compound | Minimum inhibitory concentration, Pseudomonas aeruginosa (ATCC 27853) [1] [µg/mL] | Minimum inhibitory concentration, Staphylococcus aureus (ATCC 25923) [2] [µg/mL] | Minimum inhibitory concentration, Klebsiella pneumoniae (ATCC 10031) [3] [µg/mL] | Minimum inhibitory concentration, Escherichia coli (ATCC 25922) [4] [µg/mL] | pH stability (antibacterial activity retained) [5] | Thermostability (antibacterial activity retained) [6] | Side effects to humans as tested by hemolysis assay (human erythrocytes) | Minimum inhibitory concentration (MIC), S. aureus COL (MRSA) (S. aureus COL (MRSA)) [µg/mL] | Minimum inhibitory concentration (MIC), S. aureus RN4220 (S. aureus RN4220) [µg/mL] | Minimum inhibitory concentration (MIC), S. aureus COL + 4 μg/ml Ertapenem [7] [µg/mL]
KWIVWRWRFKR [Chain201] | 8 | 4 | 8 | 2 | not hindered | not hindered | little side effects | – | – | –
RKWRAMIRLHAKWLRK [Chain105] | – | – | – | – | not hindered | not hindered | little side effects | – | – | –
WWRLHAKWKLW [Chain109] | – | – | – | – | – | – | little side effects | – | – | –
RLKWFLLFRKR [Chain308] | 2 | 4 | 4 | 1 | not hindered | not hindered | little side effects | – | – | –
RRLIWRRFKWLR [Chain204] | 4 | 16 | 32 | 2 | not hindered | not hindered | little side effects | – | – | –
RKWRAMIRLHAKRLRK [Chain104] | – | – | – | – | not hindered | not hindered | little side effects | – | – | –
RLKRWRLFRKR [Chain306] | 64 | 2 | >128 | 8 | not hindered | not hindered | – | – | – | –
RLKWFWLFRKR [Chain307] | 1 | 4 | 16 | 8 | – | – | little side effects | – | – | –
KRKWRWLFKKL [Chain310] | 1 | 8 | 16 | 4 | – | – | little side effects | – | – | –
CC[C@@H](C)[C@@H](NC(=O)[C@@H](CCSC)NC(=O)[C@@H](C)NC(=O)[C@@H](CCCNC(=N)N)NC(=O)[C@@H](Cc1c[nH]c2ccccc12)NC(=O)[C@@H](CCCCN)NC(=O)[C@H](N)CCCNC(=N)N)C(=O)N[C@H](CCCNC(=N)N)C(=O)N[C@H](CC(C)C)C(=O)N[C@H](Cc1c[nH]cn1)C(=O)N[C@H](C)C(=O)N[C@H](CCCCN)C(=O)N[C@H](CCCNC(=N)N)C(=O)N[C@H](CC(C)C)C(=O)N[C@H](CCCNC(=N)N)C(=O)N[C@H](CCCCN)C(=O)O [104 D] (H-[dR][dK][dW][dR][dA][dM][dI][dR][dL][dH][dA][dK][dR][dL][dR][dK]-OH) | – | – | – | – | – | – | – | 32 | 64 | 4
